Results reported in patent US20090142323A1, “METHODS FOR TREATING A DISORDER BY REGULATING GPRC6A” (priority 2007, published 2009).

How the values were obtained:
[1] = system: HEK-293 cells; assay: phospho-ERK in non-transfected HEK-293 control cells; format: cell-based, human; settings: control HEK293, no GPRC6A
Protocol: (§1) Equal amounts of lysates were subjected to 10% SDS-PAGE, and phospho-ERK1/2 levels were determined by immunoblotting using antiphospho-ERK1/2 mitogen-activated protein kinase antibody (Cell Signaling Technology). […] An anti-peptide antibody was raised in a rabbit against a peptide ([…] (SEQ ID NO: 27)) corresponding to a sequence in the extracellular domain of mouse GPRC6A (in exon 1 of mouse GPRC6A gene) produced by Abgent (San Diego, Calif.). For phospho-ERK, the phospho-ERK1/2 levels were determined by immunoblotting using anti-phospho-ERK1/2 mitogen-activated protein kinase antibody (Cell Signaling Technology). Urinary β2-microglobulin was detected by rabbit polyclonal anti-β2-microglobulin antibody (Abcam Inc.). For aromatase expression analysis, the rabbit polyclonal anti-aromatase antibody (Abcam Inc.) and goat anti-rabbit IgG HRP secondary antibody (Santa Cruz Biotechnology Inc.) were used. Mouse anti-Actin antibody (Santa Cruz Biotechnology Inc.) was used for control protein loading.

[2] = system: seminal vesicles; assay: seminal vesicle size after orchiectomy and testosterone replacement; format: in vivo, mouse; settings: testosterone slow releasing pellet
Excerpt: First, the male WT and GPRC6A^−/− littermates will be castrated by removal of the testicles (orchiectomy) and hormone recovered by implanting testosterone slow releasing pellet.

[3] = molecular target: T1, GPRC6A (Mus musculus, UniProt Q8K4Z6); assay: [3H]testosterone binding to membrane fractions of HEK-293 cells; parameters: expressed in transfected cells
T1 sequence (Q8K4Z6 21-928): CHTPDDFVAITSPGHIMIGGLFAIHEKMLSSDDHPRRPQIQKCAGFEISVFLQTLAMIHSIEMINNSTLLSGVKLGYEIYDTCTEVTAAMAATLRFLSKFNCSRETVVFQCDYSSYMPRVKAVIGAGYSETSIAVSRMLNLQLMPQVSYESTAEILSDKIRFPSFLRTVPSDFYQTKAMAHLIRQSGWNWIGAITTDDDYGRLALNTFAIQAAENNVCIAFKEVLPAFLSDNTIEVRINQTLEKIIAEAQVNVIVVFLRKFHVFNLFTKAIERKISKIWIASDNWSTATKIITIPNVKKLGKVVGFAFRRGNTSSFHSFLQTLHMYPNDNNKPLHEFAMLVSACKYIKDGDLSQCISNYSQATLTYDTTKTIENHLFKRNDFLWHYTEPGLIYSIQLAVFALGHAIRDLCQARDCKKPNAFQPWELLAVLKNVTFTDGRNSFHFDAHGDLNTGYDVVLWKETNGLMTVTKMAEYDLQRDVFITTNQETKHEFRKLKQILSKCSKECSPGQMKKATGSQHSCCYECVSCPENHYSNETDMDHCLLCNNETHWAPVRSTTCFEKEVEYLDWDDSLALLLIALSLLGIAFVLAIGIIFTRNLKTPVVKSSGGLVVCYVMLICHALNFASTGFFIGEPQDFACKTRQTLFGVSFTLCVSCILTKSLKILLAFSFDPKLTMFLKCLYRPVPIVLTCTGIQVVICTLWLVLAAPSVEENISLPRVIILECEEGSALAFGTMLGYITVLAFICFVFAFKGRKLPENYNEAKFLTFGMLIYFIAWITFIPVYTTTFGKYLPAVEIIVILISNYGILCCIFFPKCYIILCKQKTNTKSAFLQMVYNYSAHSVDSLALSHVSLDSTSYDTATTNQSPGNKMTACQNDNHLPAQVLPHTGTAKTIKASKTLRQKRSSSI
Protocol: Membranes from HEK and HEK stably transfected with GPRC6A were prepared and stored at −80° C. The membrane preparations were diluted to 0.15-0.5 mg protein/ml in binding buffer (in mM: 20 HEPES, 100 NaCl, 6 MgCl2, 1 EDTA, and 1 EGTA) immediately before all binding assays. Total binding saturation curves were generated by incubating 250 μl of membrane preparation and 250 μl of [^3H]Testoterone (Testosterone-[1,2,6,7-3H(N)]; 1 mCi; Sigma, Chemicals, St. Louis, Mo.), dissolved in binding buffer (in mM: 20 HEPES, 100 NaCl, 6 MgCl2, 1 EDTA, and 1 EGTA) for final reaction concentrations ranging from 0.3 to 25 nM, for 40 min. After the 40-min incubation, the binding reactions were terminated by rapidly filtering 400 μl of the reaction over a presoaked Whatman, glass-fiber filter (pore size, 1 μm) to separate bound steroid from free steroid. The filter was immediately washed twice with 12.5 ml of wash buffer (PBS) and placed in a scintillation vial. Radioactivity was counted in a liquid scintillation counter (Beckman Instruments, Fullerton, Calif.). All steps of the binding assays were conducted at 4° C.

[4] = molecular target: T1, GPRC6A; assay: phospho-ERK activation in HEK-293 cells transfected with GPRC6A (immunoblot); format: cell-based; parameters: expressed in transfected cells; host or cells: HEK-293
Protocol: as §1

[5] = HEK-293 cells transfected with GPRC6A

With `C[C@]12CC[C@H]3[C@@H](CCC4=CC(=O)CC[C@@]43C)[C@@H]1CC[C@@H]2O` [testosterone] the phospho-ERK response [1] was “did not responded”, the “recovery of seminal vesicle size” value ([2]; orchidectomized GPRC6A-/- mice) was “weaker compared to wild-type” and the “recovery of seminal vesicle size” value ([2]; orchidectomized wild-type mice) was “effectively recovered the size of seminal vesicles”. For the same compound, the “specific testosterone binding to plasma membranes” value [3, 5] was “Significant amounts of specific testosterone binding”, the “specific testosterone binding to plasma membranes” value ([3]; untransfected cells) was “negligible specific binding” and the “medium calcium concentration required for testosterone activation of GPRC6A” value [4] was > 0.5 mM. The “activation of phospho-ERK in cytosol and nucleus” value ([4]; GPRC6A expressing HEK-293 cells) was “stimulated activation of phospho-ERK in both the cytosol and nucleus” and the “GPRC6A-mediated activation of phospho-ERK” value [4, 5] was “stimulated extracellular signal-regulated kinase phosphorylation (phospho-ERK) in a dose-dependent fashion”.
